{"source": "patent US10835519B2", "about": "“Targeting metabolic adaptive responses to chemotherapy” (University of Cincinnati, priority 2012, dated 2020)", "key": {"BCR-ABL+ FL5.12 cells [1]": {"system": "BCR-ABL+ FL5.12 cells", "assay": "Viability by propidium iodide exclusion (flow cytometer)", "type": "cell-based", "settings": "for viability (cell death): 22 hours, FIG. 12", "procedure": "BCR-ABL^+ FL5.12 cells were cultured in cytokine-free medium containing either 0.2 mM glucose (“low glucose”; -Glucose) or 10 mM glucose (“high glucose”, +Glucose) for 48 hours. The mean viability and standard deviation were determined by propidium iodide exclusion in a FACSAria flow cytometer (BD). Cells were washed three times in PBS and resuspended at a concentration of 2×10^5 per mL in media supplemented with 2 μg/mL of propidium iodide (Molecular Probes) prior to analysis. For the viability analysis of BCL-ABL^+ primary bone marrow cells, viability was measured after withdrawal from cytokines for five (5) days in high glucose or low glucose media. Methods used for culturing cells and measuring viability are described above and below.\nFatty acid oxidation inhibition via ST247, an inverse agonist that inhibits PPARδ activity, was examined. BCR-ABL-expressing FL5.12 cells were pretreated with vehicle control or 20 nM rapamycin overnight. Cells were cultured for 22 hours in complete medium lacking IL-3 and glucose, supplemented with the indicated treatments (vehicle, 0.5 μM ST247, 1 μM ST247, or 5 μM ST247). Viability was measured in three technical replicates by propidium iodide (PI) exclusion using a flow cytometer. […] The effect was dose dependent, with lesser concentrations resulting in little effect in rapamycin-treated cells.\nIn order to investigate the metabolic switch as glycolysis declines, BCR-ABL-expressing FL5.12 cells were pretreated with vehicle control or 20 nM rapamycin overnight. Cells were then cultured in complete medium lacking IL-3 with 100 μM glucose (a limiting concentration) for 46 hours, supplemented with either vehicle control or 5 μM ST247. Viability was measured in three technical replicates by PI exclusion in a flow cytometer.\nBCR-ABL-expressing FL5.12 cells were pretreated with vehicle control or 20 nM rapamycin overnight. Cells were then cultured in complete medium lacking IL-3 with 50 μM glucose for 48 hours, supplemented with the indicated treatments (vehicle, 1 μM GW6471, 10 μM GW7647, or 5 μM ST247). Viability was measured in three technical replicates by PI exclusion in a flow cytometer."}, "Akt": {"system": "Akt", "assay": "Akt phosphorylation immunoblot in BCR-ABL+ FL5.12 cells", "type": "cell-based, murine", "settings": "rebound after S6K1 knockdown; FIG. 5A", "procedure": "Although Akt activation has been previously associated with glucose-dependent survival (see FIG. 4A), rebound activation of Akt was tested for association with increased survival in BCR-ABL^+ cells cultured under low glucose conditions. […] Inactivation of mTORC1 and S6K1 can trigger increases in the activity of Akt and other upstream kinases, due to knockdown or loss of feedback regulation.\nRapamycin treatment can induce rebound Akt activation in short-term cultures, but long term treatment can suppress Akt activation by the upstream kinase mTORC2. See, e.g., Sarbassov, et al., (2006) Mol Cell 22:159-68."}, "BCR-ABL+ K562 cells [2]": {"system": "BCR-ABL+ K562 cells", "assay": "Viability by propidium iodide exclusion", "type": "cell-based, human", "settings": "full glucose; FIG. 10; not as strong as S6K1 knockdown with etomoxir"}, "BCR-ABL+ FL5.12 cells [3]": {"system": "BCR-ABL+ FL5.12 cells", "assay": "Fatty acid oxidation, 3H release from 3H-palmitate", "type": "cell-based, murine", "settings": "etomoxir, upon S6K1 inactivation; FIG. 7A", "procedure": "(§1) The rate of ^3H release from ^3H-palmitate was used to measure FAO. The ^3H-palmitate was adopted from Djouadi, et al., (2003) Mol Genet Metab 78:112-8. Between approximately 0.5×10^6 and approximately 1.0×10^6 cells were washed with PBS, then cultured with approximately 400 μL of (9,10-^3H) palmitate:albumin for approximately 4 hours at approximately 37 degrees C. After incubation, approximately 10% TCA was added to each tube and centrifuged at approximately 3300 rpm for approximately 10 min at approximately 4 degrees C. before being mixed with 6N NaOH and applied to ion-exchange columns. Each column was washed with approximately 1 mL of water and the eluates were counted using a scintillation counter."}, "BCR-ABL+ K562 cells [4]": {"system": "BCR-ABL+ K562 cells", "assay": "Fatty acid oxidation, 3H release from 3H-palmitate", "type": "cell-based, human", "settings": "etomoxir and/or rapamycin; FIG. 7B", "procedure": "as §1"}, "BCR-ABL+ KBM7 cells": {"system": "BCR-ABL+ KBM7 cells", "assay": "Fatty acid oxidation, 3H release from 3H-palmitate", "type": "cell-based, human", "settings": "etomoxir and/or rapamycin; FIG. 7C", "procedure": "as §1"}, "S6K1": {"system": "S6K1", "assay": "Ribosomal protein S6 phosphorylation as readout of S6K1 activity", "type": "cell-based", "settings": "imatinib 1.5 μM", "procedure": "In particular, vector control and BCR-ABL^+ cells were cultured for three (3) hours in the absence of growth factor, then restimulated for thirty (30) minutes for analysis of S6K1 phosphorylation at T389 and the phosphorylation of ribosomal protein S6 at serines 235/236.\nSmall ribosomal protein S6 (pS^6) phosphorylation was measured."}}, "note": "“Also recorded” adds a separate entry of the source."}
{"smiles": "NC(=O)c1ncn([C@@H]2O[C@H](CO)[C@@H](O)[C@H]2O)c1N", "note": "[AICAR, 5-aminoimidazole-4-carboxamide 1-β-D-ribofuranoside]", "values": [{"measurement": "glucose-independent survival", "setting": "BCR-ABL+ FL5.12 cells [1]; AICAR, low glucose, level similar to S6K1 knockdown, FIG. 8B", "value": "triggered glucose-independent survival"}]}
{"smiles": "Cn1c(=O)n(-c2ccc(C(C)(C)C#N)cc2)c2c3cc(-c4cnc5ccccc5c4)ccc3ncc21", "note": "[BEZ235]", "values": [{"measurement": "glucose-independent survival", "setting": "BCR-ABL+ FL5.12 cells [1]; S6K1 inactivation (knockdown) plus BEZ235, low glucose, FIG. 5B", "value": "did not prevent glucose-independent survival"}, {"measurement": "Akt activation (phosphorylation at serine 473)", "setting": "Akt", "value": "prevented the increase in Akt activation"}]}
{"smiles": "CCC(=O)NC[C@H](Cc1ccc(OCCc2nc(-c3ccccc3)oc2C)cc1)N/C(C)=C\\C(=O)c1ccc(C(F)(F)F)cc1", "note": "[GW6471, N-((2S)-2-(((1Z)-1-Methyl-3-oxo-3-(4-(trifluoromethyl)phenyl)prop-1-enyl)amino)-3-(4-(2-(5-methyl-2-phenyl-1,3-oxazol-4-yl)ethoxy)phenyl)propyl)propanamide]", "values": [{"measurement": "viability (restoring apoptosis)", "setting": "BCR-ABL+ FL5.12 cells [1]; 1 μM GW6471, 20 nM rapamycin pretreated, 50 μM glucose, 48 hours, FIG. 14", "value": "somewhat effective in restoring apoptosis"}]}
{"smiles": "CC(C)(Sc1ccc(CCN(CCCCC2CCCCC2)C(=O)NC2CCCCC2)cc1)C(=O)O", "note": "[GW7647]", "values": [{"measurement": "viability", "setting": "BCR-ABL+ FL5.12 cells [1]; 10 μM GW7647, vehicle-control treated cells, 50 μM glucose, 48 hours, FIG. 14", "value": "undesired increase in viability"}]}
{"smiles": "CCCCCCNc1ccc(NS(=O)(=O)c2ccsc2C(=O)OC)c(OC)c1", "note": "[ST247]", "values": [{"measurement": "viability (cell death)", "setting": "BCR-ABL+ FL5.12 cells [1]; 5 μM ST247, 20 nM rapamycin pretreated overnight, no IL-3, no glucose", "value": "triggered substantial cell death"}, {"measurement": "viability (restoring apoptosis)", "setting": "BCR-ABL+ FL5.12 cells [1]; 5 μM ST247, 20 nM rapamycin pretreated, 50 μM glucose, 48 hours, FIG. 14", "value": "restoring apoptosis"}, {"measurement": "viability (survival advantage)", "setting": "BCR-ABL+ FL5.12 cells [1]; 5 μM ST247, 20 nM rapamycin pretreated, 100 μM glucose, 46 hours, FIG. 13", "value": "counteracted the survival advantage induced by rapamycin"}, {"measurement": "viability (cell death)", "setting": "BCR-ABL+ FL5.12 cells [1]; lesser concentrations of ST247 (0.5 μM, 1 μM), rapamycin-treated, no glucose", "value": "little effect"}]}
{"smiles": "CCOC(=O)[C@@]1(CCCCCCOc2ccc(Cl)cc2)CO1", "note": "[etomoxir]", "values": [{"measurement": "apoptosis, combination with S6K1 knockdown", "setting": "BCR-ABL+ FL5.12 cells [1]; 200 μM etomoxir plus S6K1 knockdown, full glucose, approximately 48 hours, FIG. 9A", "value": "induced significant apoptosis"}, {"measurement": "cytotoxicity as a single agent", "setting": "BCR-ABL+ FL5.12 cells [1]; 200 μM etomoxir, full glucose, approximately 48 hours, FIG. 9A", "value": "mild cytotoxic effect"}, {"measurement": "cell death in response to etomoxir, dose curve with S6K1 knockdown", "setting": "BCR-ABL+ FL5.12 cells [1]; etomoxir about 200 μM to about 300 μM, full glucose, FIG. 9B", "value": "enhanced cell death"}, {"measurement": "cell survival mediated by AICAR", "setting": "BCR-ABL+ FL5.12 cells [1]; low glucose, etomoxir added, FIG. 8B", "value": "prevented cell survival"}, {"measurement": "survival of S6K1 knockdown cells", "setting": "BCR-ABL+ FL5.12 cells [1]; low glucose, presence of etomoxir, FIG. 8A, 8B", "value": "prevented the survival; also recorded: prevented cell survival"}, {"measurement": "cytotoxicity of etomoxir in the presence of rapamycin", "setting": "BCR-ABL+ K562 cells [2]", "value": "enhanced cytotoxicity"}, {"measurement": "3H release from 3H-palmitate (FAO)", "setting": "BCR-ABL+ FL5.12 cells [3]", "value": "reduced ^3H release"}, {"measurement": "3H release from 3H-palmitate (FAO)", "setting": "BCR-ABL+ K562 cells [4]", "value": "reduced ^3H release"}, {"measurement": "3H release from 3H-palmitate (FAO)", "setting": "BCR-ABL+ KBM7 cells", "value": "reduced ^3H release"}]}
{"smiles": "Cc1ccc(NC(=O)c2ccc(CN3CCN(C)CC3)cc2)cc1Nc1nccc(-c2cccnc2)n1", "note": "[imatinib]", "values": [{"measurement": "S6K1 activity (phosphorylation of pS6)", "setting": "S6K1", "value": "reduced S6K1 activity"}]}
